Reference: patent publication US12612354B2, “Cyclopentenones derivatives and their use as antibiotics” (Centre National de la Recherche Scientifique (CNRS), priority 2020, dated 2026)
Converted amounts (≈) assume the structure as drawn. Read-outs that look alike come from different tables or passages of the source.

Columns and labels:
Assay type in all cases: cell-based
[1] = tested on: Staphylococcus aureus BAA-1766 (MRSA); test: Minimum inhibitory concentration (MIC), microbroth dilution assay; settings: S. aureus BAA-1766 (MRSA), Mueller-Hinton broth
Method: (§1) Pathogenic bacteria were revived by streaking bacteria on 100 mm Petri dishes containing the suitable medium recommended by ATCC protocol, overnight at 30 to 37° C.: Luria-Bertani Broth (LB, Difco, Thermo Fisher Scientific Inc.), Tryptic Soy Broth (TSB, Difco, Thermo Fisher Scientific Inc.), Nutrient Broth (NB, Difco, Thermo Fisher Scientific Inc.), supplemented with 2% of agar (Granulated Agar, Difco, Thermo Fisher Scientific Inc.)
(§2) For each pathogen, several colonies were collected with a loop and transfered in 10 ml of sterile Mueller-Hinton broth (Sigma) medium and incubated on a rotary shaker (130 rpm) […] at 30 to 37° C. The OD at 600 nm was measured and adjusted to 0.5 OD, then the solution was diluted 400-fold to have the appropriate inoculum
(§3) The antimicrobial susceptibility was carried out by microbroth dilution assay. Tests were performed on 96-well plates with 100 μL of Mueller-Hinton broth (Sigma) medium final volume and a final bacterial concentration of 5.10^5 CUF/ml. The tested compounds were solubilized in dimethyl sulfoxide (DMSO) given 10 mg/mL (then expressed in μM) stock solution. The stock solutions were diluted from 100 μg/ml to 0.195 μg/ml for testing.
(§4) Compounds Ia to Ie have also been tested on Staphylococcus aureus ATCC 25923 strain and Staphylococcus aureus BAA-1766 (MRSA) strain (both Gram-positive) by using the screening method of the measurement of MIC (minimum inhibitory concentration).
(§5) This technique enables to determine the minimum concentration that causes total inhibition of the growth of the target pathogen.

[2] = tested on: Staphylococcus aureus ATCC 25923; test: as above; settings: Mueller-Hinton broth
Method: as §1, §2, §3, §4, §5

[3] = tested on: Enterobacter cloacae ATCC 13047; test: Kirby-Bauer disk diffusion susceptibility test (inhibition zone); settings: 12.5, 25, 50 and 100 μg per disc, FIG. 2
Method: (§6) FIG. 2: Kirby-Bauer Disk diffusion susceptibility test on Enterobacter cloacae ATCC 13047 with compounds Ia and Ib at 12.5, 25, 50 and 100 μg and the reference gentamicin at 10 μg; left: graph representing the diameter of the inhibition zone as a function of each sample; right: photo of the petri dish illustrating the inhibition zones with Ia at 12.5, 25, 50 and 100 μg.
(§7) Pathogenic bacteria were revived by streaking bacteria on 100 mm Petri dishes containing the suitable medium recommended by ATCC protocol, overnight at 30 to 37° C.: Luria-Bertani Broth (LB, Difco, Thermo Fisher Scientific Inc.), Tryptic Soy Broth (TSB, Difco, Thermo Fisher Scientific Inc.), Nutrient Broth (NB, Difco, Thermo Fisher Scientific Inc.), supplemented with 2% of agar (Granulated Agar, Difco, Thermo Fisher Scientific Inc.).
(§8) For each pathogen, several colonies were collected with a loop and transferred in 5 ml of sterile NB medium and incubated on a rotary shaker (130 rpm) overnight at 30 to 37° C.
(§9) 150 mm Nutrient Broth Agar plates were swabbed with inocula and kept for 15 min for absorption. Pre-sterilized six-millimeter Whatman No. 1 discs were placed in the Petri dishes and 12.5, 25, 50 and 100 μg of the test compounds in DMSO (10 mg/ml) were applied to the sterile disc papers. […] Then the plates were incubated at 30° or 37° C. for 24 h and inhibition diameters were measured. […]

[4] = tested on: Escherichia coli ATCC 25922; test: as above; settings: for inhibition activity (inhibition zone): 12.5, 25, 50 and 100 μg per disc, FIG. 4; for inhibition of growth at 100 µg/disc: ATCC25922, 24 h, 100 μg of compound
Method: as §6, with “4:” for “2:”, “Escherichia coli” for “Enterobacter cloacae”, “25922” for “13047”
as §7, §8
(§10) 150 mm Nutrient Broth Agar plates were swabbed with inocula and kept for 15 min for absorption. Pre-sterilized six-millimeter Whatman No. 1 discs were placed in the Petri dishes and 12.5, 25, 50 and 100 μg of the test compounds in DMSO (10 mg/ml) were applied to the sterile disc papers. The standard drug gentamycin (10 μg) was used as a positive reference standard to determine the sensitivity of each bacterial species and DMSO as a negative control. Then the plates were incubated at 30° or 37° C. for 24 h and inhibition diameters were measured.
Compounds Ia to Ic have also been tested on the following pathogenic bacteria in order to evaluate their inhibition efficacy by the Petri dish inhibition zone method: • Staphylococcus aureus ATCC 25923—Gram-positive (compounds Ia, Ib and Ic tested) • Enterobacter cloacae ATCC 13047—Gram-negative (compounds Ia and Ib tested) • Acinetobacter baumannii ATCC 19606—Gram-negative (compounds Ib and Ic tested) • Escherichia coli ATCC 25922—Gram-negative (compounds Ia and Ib tested)
This technique enables to visualize the potential for inhibiting the growth of target pathogenic bacteria. A dose-response study at 12.5, 25, 50 and 100 μg of each compound has been carried out, comparing the inhibition zones with 10 μg gentamicin. […] Best results are obtained for Gran negative bacteria, especially Enterobacter cloacae as represented on FIG. 2.
Compounds Ib, Ic, Ij, Ik, Il, Im, Ih, Ig, Ii, Id and If have also been tested on the following pathogenic bacteria in order to evaluate their inhibition efficacy by the Petri dish inhibition zone method: • Micrococcus luteus ATCC10240; • Bacillus subtilis ATCC6633; • Escherichia coli ATCC 25922.
The percentage of inhibition growth at 100 μg of each tested compound has been determined.

[5] = tested on: Micrococcus luteus ATCC10240; test: Petri dish inhibition zone method, % inhibition of growth; settings: 24 h, 100 μg of compound
Method: (§11) Pathogenic bacteria were revived by streaking bacteria on 100 mm Petri dishes containing the suitable medium recommended by ATCC protocol, overnight at 30 to 37° C.: Luria-Bertani Broth (LB, Difco, Thermo Fisher Scientific Inc.), Tryptic Soy Broth (TSB, Difco, Thermo Fisher Scientific Inc.), Nutrient Broth (NB, Difco, Thermo Fisher Scientific Inc.), supplemented with 2% of agar (Granulated Agar, Difco, Thermo Fisher Scientific Inc.). For each pathogen, several colonies were collected with a loop and transferred in 5 ml of sterile NB medium and incubated on a rotary shaker (130 rpm) overnight at 30 to 37° C. 150 mm Nutrient Broth Agar plates were swabbed with inocula and kept for 15 min for absorption. Pre-sterilized six-millimeter Whatman No. 1 discs were placed in the Petri dishes and 12.5, 25, 50 and 100 μg of the test compounds in DMSO (10 mg/ml) were applied to the sterile disc papers. The standard drug gentamycin (10 μg) was used as a positive reference standard to determine the sensitivity of each bacterial species and DMSO as a negative control. Then the plates were incubated at 30° or 37° C. for 24 h and inhibition diameters were measured. Compounds Ib, Ic, Ij, Ik, Il, Im, Ih, Ig, Ii, Id and If have also been tested on the following pathogenic bacteria in order to evaluate their inhibition efficacy by the Petri dish inhibition zone method: • Micrococcus luteus ATCC10240; • Bacillus subtilis ATCC6633; • Escherichia coli ATCC 25922. The percentage of inhibition growth at 100 μg of each tested compound has been determined.

[6] = tested on: Bacillus subtilis ATCC6633; test: as above; settings: 24 h, 100 μg of compound
Method: as §11

[7] = tested on: Acinetobacter baumannii ATCC 19606; test: Kirby-Bauer disk diffusion susceptibility test (inhibition zone); settings: 12.5, 25, 50 and 100 μg per disc, FIG. 3
Method: as §6, with “FIG. 3:” for “FIG. 2:”, “on Acinetobacter baumanii” for “on Enterobacter cloacae”, “ATCC 19606” for “ATCC 13047”, “compounds Ib” for “compounds Ia”, “and Ic” for “and Ib”, “with Ib and Ic” for “with Ia”
as §7, §8, §9

[8] = tested on: Staphylococcus aureus ATCC 25923; test: as above; settings: S. aureus ATCC 25923; 12.5, 25, 50 and 100 μg per disc; FIG. 1
Method: as §6, with “FIG. 1:” for “FIG. 2:”, “on Staphylococcus aureus” for “on Enterobacter cloacae”, “ATCC 25923” for “ATCC 13047”, “compounds Ia, Ib” for “compounds Ia”, “and Ic” for “and Ib”, “with Ic” for “with Ia”
as §7, §8, §10
Compounds Ia to Ic have also been tested on the following pathogenic bacteria in order to evaluate their inhibition efficacy by the Petri dish inhibition zone method: • Staphylococcus aureus ATCC 25923—Gram-positive (compounds Ia, Ib and Ic tested) • Enterobacter cloacae ATCC 13047—Gram-negative (compounds Ia and Ib tested) • Acinetobacter baumannii ATCC 19606—Gram-negative (compounds Ib and Ic tested) • Escherichia coli ATCC 25922—Gram-negative (compounds Ia and Ib tested) […]

[9] = Staphylococcus aureus, ATCC25923, S. aureus ATCC 25923, read-out: MIC

SMILES	MIC [1] [µg/mL]	MIC [2, 9] [µg/mL]	inhibition activity (inhibition zone) [3]	inhibition activity (inhibition zone) [4]	inhibition of growth at 100 µg/disc [4] [%]	inhibition of growth at 100 µg/disc [5] [%]	inhibition of growth at 100 µg/disc [6] [%]	inhibition activity (inhibition zone) [7]	inhibition activity (inhibition zone) [8]	MIC ([2]; S. aureus ATCC 25923) [µg/mL]
O=C1C=C[C@H](O)[C@H]1c1ccc(Cl)cc1 (racemic) [Ib]	18.8 (≈ 89.9 µM)	12.5 (≈ 59.9 µM)	inhibition activity	inhibition activity	60	68	51	inhibition activity	inhibition activity	–
O=C1C=C[C@H](O)[C@H]1c1ccccc1Cl (racemic) [Ic]	37.5 (≈ 180 µM)	6.25 (≈ 30 µM)	–	–	35	33	31	inhibition activity	inhibition activity	6.26 (≈ 30 µM)
O=C1C=C[C@@](O)(CO)[C@H]1c1ccc(Cl)cc1 (racemic) [Id]	12 (≈ 50.3 µM)	12 (≈ 50.3 µM)	–	–	45	0	30	–	–	–
CC(=O)O[C@H]1C=CC(=O)[C@@H]1c1ccccc1 (racemic) [Ie]	6.25 (≈ 28.9 µM)	6.25 (≈ 28.9 µM)	–	–	–	–	–	–	–	–
O=C1C=C[C@@](O)(CO)[C@H]1c1ccccc1 (racemic) [If]	–	–	–	–	57	21	0	–	–	–
O=C1C=C[C@@](O)(CO)[C@H]1c1ccc(F)cc1 (racemic) [Ig]	–	–	–	–	55	0	18	–	–	–
COc1ccc([C@H]2C(=O)C=C[C@@]2(O)CO)cc1 (racemic) [Ih]	–	–	–	–	55	0	0	–	–	–
O=C1C=C[C@@](O)(CO)[C@H]1c1ccc2c(c1)OCO2 (racemic) [Ii]	–	–	–	–	45	0	0	–	–	–
COc1ccc(C2C(=O)C=C[C@@H]2O)cc1 (mixture of isomers) [Ij]	–	–	–	–	62	39	61	–	–	–
COc1cccc(C2C(=O)C=C[C@@H]2O)c1 (mixture of isomers) [Ik]	–	–	–	–	42	23	48	–	–	–
O=C1C=C[C@H](O)C1c1ccc2ccccc2c1 (mixture of isomers) [Il]	–	–	–	–	40	50	57	–	–	–
O=C1C=C[C@H](O)C1c1cccc2ccccc12 (mixture of isomers) [Im]	–	–	–	–	47	51	56	–	–	–
O=C1C=C[C@H](O)[C@H]1c1ccccc1 (relative stereo) [Ia, (4S*,5R*)-4-hydroxy-5-phenyl-cyclopent-2-en-1-one]	> 50	25 (≈ 144 µM)	inhibition activity	inhibition activity	–	–	–	–	inhibition activity	–
